A word on the IC50: it is the point on the concentration scale where inhibition reaches its midpoint.

The target in assay [1] is T1, Integrin alpha-V/beta-3 (Homo sapiens, UniProt P05106+P06756). Description: Antagonist activity at alphavbeta3 integrin receptor (unknown origin) by cell-free ELISA. In kind it is protein-complex assay. For orientation: In an ELISA, binding on a coated surface is turned into a signal by an enzyme label.
For assay [2], the target named is T2, Integrin alpha-V/beta-5 (Homo sapiens, UniProt P06756+P18084). Description: Antagonist activity at alphavbeta5 integrin receptor (unknown origin) by cell-free ELISA. In kind it is protein-complex assay.
For assay [3], the target named is Integrin alpha-IIb/beta-3 (Homo sapiens, UniProt P05106+P08514). Description: Antagonist activity at alpha2bbeta3 integrin receptor (unknown origin) by cell-free ELISA. In kind it is protein-complex assay.
For assay [4], the target named is T1, Integrin alpha-V/beta-3. Put plainly: Antagonist activity at alphavbeta3 integrin receptor (unknown origin) by cell-based ELISA.
Assay [5] deals with T3, Integrin alpha-5/beta-1 (Homo sapiens, UniProt P05556+P08648). Put plainly: Antagonist activity at alpha5beta1 integrin receptor (unknown origin) by cell-based ELISA.
Assay [6] concerns the target T2, Integrin alpha-V/beta-5. Put plainly: Antagonist activity at alphavbeta5 integrin receptor (unknown origin) by cell-based ELISA.
The target in assay [7] is T4, Integrin alpha-V/beta-1 (Homo sapiens, UniProt P05556+P06756). Description: Antagonist activity at alphavbeta1 integrin receptor in HEK293 cells after 4 hrs using p-nitrophenyl phosphate by colorimetry. In kind it is cell-based.
The target of assay [8] is T1, Integrin alpha-V/beta-3. Put plainly: Antagonist activity at alphavbeta3 integrin receptor in HEK293 cells after 4 hrs using p-nitrophenyl phosphate by colorimetry. It counts as cell-based.
The target of assay [9] is Integrin alpha-V/beta-6 (Homo sapiens, UniProt P06756+P18564). Put plainly: Antagonist activity at alphavbeta6 integrin receptor in human HT29 cells after 4 hrs using p-nitrophenyl phosphate by colorimetry. In kind it is cell-based, HT-29.
Assay [10] addresses Integrin alpha-V/beta-8 (Homo sapiens, UniProt P06756+P26012). Put plainly: Antagonist activity at human recombinant alphavbeta8 integrin receptor expressed in HEK293 cells after 4 hrs using p-nitrophenyl phosphate by colorimetry. In kind it is cell-based.
Assay [11] has as its target T3, Integrin alpha-5/beta-1. Put plainly: Antagonist activity at alpha5beta1 integrin receptor in K562 cells after 4 hrs using p-nitrophenyl phosphate by colorimetry. It counts as cell-based.
In assay [12] the target is Integrin alpha-V/beta-5 (Homo sapiens) [+]. Description: Antagonist activity at alphavbeta5 integrin receptor in HEK293 cells after 4 hrs using p-nitrophenyl phosphate by colorimetry.
Assay [13] has as its target T4, Integrin alpha-V/beta-1. Description: Antagonist activity at alphavbeta1 integrin receptor (unknown origin) by cell-based ELISA.
The target in assay [14] is T3, Integrin alpha-5/beta-1. Put plainly: Antagonist activity at alpha5beta1 integrin receptor (unknown origin) by cell-free ELISA. In kind it is protein-complex assay.
In assay [15] the target is T5, Integrin alpha-V/beta-3 (Mus musculus, UniProt O54890+P43406).
T5 sequence (O54890 whole entry): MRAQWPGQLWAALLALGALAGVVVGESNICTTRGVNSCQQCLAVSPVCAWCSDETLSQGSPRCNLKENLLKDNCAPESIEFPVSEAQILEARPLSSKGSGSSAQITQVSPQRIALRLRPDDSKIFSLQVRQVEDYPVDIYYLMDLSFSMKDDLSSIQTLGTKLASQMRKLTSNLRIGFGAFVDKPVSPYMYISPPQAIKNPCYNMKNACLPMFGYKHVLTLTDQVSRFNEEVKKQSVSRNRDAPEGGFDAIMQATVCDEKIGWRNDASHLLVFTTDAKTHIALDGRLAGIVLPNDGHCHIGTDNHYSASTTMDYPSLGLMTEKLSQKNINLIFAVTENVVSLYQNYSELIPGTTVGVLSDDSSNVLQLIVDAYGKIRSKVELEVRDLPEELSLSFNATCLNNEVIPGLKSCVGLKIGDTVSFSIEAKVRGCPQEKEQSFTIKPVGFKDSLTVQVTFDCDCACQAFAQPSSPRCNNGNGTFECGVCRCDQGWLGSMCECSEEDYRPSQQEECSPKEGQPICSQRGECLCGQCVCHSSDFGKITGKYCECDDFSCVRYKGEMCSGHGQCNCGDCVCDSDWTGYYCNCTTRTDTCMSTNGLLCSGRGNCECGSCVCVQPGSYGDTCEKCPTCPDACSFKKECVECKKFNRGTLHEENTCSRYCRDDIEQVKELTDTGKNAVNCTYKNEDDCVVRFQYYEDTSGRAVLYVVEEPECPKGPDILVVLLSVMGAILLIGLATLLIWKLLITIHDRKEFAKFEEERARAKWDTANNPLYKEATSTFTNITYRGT
T5 sequence (P43406 whole entry): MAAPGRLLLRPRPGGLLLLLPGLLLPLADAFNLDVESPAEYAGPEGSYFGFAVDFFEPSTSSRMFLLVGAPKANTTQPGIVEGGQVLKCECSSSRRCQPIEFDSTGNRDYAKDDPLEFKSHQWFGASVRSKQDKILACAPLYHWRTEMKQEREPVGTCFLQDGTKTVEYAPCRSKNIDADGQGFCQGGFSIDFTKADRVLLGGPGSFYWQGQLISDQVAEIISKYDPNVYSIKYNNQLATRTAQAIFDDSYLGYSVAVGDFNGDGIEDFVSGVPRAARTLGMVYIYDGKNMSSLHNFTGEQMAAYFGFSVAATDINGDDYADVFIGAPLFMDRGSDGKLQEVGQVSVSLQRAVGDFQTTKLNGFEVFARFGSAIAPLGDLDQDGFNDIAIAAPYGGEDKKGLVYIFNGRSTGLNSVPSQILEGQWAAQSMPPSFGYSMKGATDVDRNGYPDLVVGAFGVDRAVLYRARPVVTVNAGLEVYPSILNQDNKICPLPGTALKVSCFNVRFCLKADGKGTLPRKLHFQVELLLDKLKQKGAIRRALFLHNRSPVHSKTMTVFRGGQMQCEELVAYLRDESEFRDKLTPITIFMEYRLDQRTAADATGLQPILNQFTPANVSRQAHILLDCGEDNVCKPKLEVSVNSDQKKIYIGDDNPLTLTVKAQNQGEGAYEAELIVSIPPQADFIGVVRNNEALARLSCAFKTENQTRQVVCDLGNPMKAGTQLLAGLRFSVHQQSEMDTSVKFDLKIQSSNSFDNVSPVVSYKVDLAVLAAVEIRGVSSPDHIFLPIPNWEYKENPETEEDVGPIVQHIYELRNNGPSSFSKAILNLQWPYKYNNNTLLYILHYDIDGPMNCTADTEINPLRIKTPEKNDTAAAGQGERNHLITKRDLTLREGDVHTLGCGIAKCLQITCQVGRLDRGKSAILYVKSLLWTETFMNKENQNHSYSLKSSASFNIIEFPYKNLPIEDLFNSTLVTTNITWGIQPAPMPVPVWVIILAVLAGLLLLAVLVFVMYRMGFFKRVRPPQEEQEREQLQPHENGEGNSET
Description: Antagonist activity at mouse endothelial alphavbeta3 integrin receptor by cell adhesion assay. In kind it is protein-complex assay.

For assay [16], the target named is T6, Integrin alpha-IIb/beta-3 (Mus musculus, UniProt O54890+Q9QUM0).
T6 sequence (Q9QUM0 whole entry): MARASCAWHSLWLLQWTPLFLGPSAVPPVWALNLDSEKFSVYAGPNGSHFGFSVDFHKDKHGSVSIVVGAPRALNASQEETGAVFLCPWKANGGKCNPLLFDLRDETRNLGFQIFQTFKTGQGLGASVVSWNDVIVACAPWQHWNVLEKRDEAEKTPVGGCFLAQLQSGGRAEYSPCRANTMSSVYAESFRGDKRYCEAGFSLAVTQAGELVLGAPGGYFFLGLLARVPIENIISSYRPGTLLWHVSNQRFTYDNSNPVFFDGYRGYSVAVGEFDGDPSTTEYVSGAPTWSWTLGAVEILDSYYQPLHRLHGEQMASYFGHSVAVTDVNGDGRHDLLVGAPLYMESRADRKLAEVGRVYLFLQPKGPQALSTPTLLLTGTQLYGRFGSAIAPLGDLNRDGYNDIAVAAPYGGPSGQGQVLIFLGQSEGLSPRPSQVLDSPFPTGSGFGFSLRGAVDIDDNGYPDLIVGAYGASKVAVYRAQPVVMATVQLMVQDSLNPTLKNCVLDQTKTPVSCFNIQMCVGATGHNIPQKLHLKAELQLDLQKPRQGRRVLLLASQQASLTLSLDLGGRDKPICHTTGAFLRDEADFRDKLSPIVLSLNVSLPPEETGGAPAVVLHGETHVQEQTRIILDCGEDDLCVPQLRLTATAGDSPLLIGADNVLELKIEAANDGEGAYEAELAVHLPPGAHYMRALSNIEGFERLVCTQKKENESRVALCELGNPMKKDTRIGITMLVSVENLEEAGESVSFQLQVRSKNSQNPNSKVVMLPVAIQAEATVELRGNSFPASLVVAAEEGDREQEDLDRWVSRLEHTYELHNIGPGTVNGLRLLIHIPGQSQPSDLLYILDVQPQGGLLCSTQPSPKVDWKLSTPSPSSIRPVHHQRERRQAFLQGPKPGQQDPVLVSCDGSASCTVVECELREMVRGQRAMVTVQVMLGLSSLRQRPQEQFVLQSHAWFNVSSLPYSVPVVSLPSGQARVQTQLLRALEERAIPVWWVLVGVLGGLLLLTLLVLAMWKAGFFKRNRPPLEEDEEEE
T6 sequence (O54890 whole entry): T5 sequence (O54890 whole entry)
Put plainly: Antagonist activity at mouse endothelial alpha2bbeta3 integrin receptor by cell adhesion assay. It counts as protein-complex assay.

T4 sequence (P05556 21-798 limits assumed): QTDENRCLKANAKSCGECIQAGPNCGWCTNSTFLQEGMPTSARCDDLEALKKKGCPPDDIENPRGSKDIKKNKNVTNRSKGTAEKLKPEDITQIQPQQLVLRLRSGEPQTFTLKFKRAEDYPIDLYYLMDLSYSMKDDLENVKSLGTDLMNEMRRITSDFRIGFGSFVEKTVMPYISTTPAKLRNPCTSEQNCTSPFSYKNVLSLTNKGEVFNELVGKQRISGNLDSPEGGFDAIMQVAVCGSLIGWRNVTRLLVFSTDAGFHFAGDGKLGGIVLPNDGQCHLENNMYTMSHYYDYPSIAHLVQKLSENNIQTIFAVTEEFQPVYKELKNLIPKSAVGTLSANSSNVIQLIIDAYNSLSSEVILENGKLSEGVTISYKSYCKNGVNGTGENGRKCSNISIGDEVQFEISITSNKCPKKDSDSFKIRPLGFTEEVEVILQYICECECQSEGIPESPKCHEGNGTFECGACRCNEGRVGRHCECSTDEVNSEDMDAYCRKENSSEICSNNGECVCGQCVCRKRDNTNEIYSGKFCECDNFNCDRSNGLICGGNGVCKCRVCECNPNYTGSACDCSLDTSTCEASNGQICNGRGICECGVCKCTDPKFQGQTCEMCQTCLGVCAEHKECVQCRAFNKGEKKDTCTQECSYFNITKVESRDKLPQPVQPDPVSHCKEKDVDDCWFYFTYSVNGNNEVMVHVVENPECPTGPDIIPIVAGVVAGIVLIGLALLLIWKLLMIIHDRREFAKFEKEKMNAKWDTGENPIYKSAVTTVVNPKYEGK
T4 sequence (P06756 31-889 limits assumed): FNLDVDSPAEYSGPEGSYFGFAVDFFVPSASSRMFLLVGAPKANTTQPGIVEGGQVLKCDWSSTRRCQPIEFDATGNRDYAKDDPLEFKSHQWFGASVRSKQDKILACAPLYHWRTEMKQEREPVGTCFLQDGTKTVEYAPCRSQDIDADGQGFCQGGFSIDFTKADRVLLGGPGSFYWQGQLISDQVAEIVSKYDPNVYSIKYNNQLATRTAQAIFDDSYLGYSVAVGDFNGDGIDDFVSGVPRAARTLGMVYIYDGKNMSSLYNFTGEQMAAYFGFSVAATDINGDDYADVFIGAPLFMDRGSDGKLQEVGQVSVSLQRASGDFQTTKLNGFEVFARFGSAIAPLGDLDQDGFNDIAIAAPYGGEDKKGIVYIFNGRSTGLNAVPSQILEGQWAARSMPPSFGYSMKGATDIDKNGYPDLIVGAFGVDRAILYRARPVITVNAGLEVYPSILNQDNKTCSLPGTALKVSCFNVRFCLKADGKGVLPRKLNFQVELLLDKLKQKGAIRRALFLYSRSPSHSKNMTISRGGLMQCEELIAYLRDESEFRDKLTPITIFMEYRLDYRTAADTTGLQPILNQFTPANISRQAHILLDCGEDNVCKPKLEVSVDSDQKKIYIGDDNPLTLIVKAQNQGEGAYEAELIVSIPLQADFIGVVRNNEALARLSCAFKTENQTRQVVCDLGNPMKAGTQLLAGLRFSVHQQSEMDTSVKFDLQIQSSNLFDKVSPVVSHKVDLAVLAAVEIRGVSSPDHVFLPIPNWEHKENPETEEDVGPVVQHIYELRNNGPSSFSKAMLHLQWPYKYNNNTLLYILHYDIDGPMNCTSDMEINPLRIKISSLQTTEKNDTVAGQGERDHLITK
T4 sequence (P06756 891-1048 limits assumed): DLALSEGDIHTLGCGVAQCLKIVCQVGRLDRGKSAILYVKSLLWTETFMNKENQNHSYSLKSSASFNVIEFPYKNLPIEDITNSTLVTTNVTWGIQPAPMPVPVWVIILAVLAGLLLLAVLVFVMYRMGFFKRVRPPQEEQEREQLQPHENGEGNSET
T3 sequence (P05556 21-798 limits assumed): as the sequence (P05556 21-798 limits assumed) above
T3 sequence (P08648 42-894 limits assumed): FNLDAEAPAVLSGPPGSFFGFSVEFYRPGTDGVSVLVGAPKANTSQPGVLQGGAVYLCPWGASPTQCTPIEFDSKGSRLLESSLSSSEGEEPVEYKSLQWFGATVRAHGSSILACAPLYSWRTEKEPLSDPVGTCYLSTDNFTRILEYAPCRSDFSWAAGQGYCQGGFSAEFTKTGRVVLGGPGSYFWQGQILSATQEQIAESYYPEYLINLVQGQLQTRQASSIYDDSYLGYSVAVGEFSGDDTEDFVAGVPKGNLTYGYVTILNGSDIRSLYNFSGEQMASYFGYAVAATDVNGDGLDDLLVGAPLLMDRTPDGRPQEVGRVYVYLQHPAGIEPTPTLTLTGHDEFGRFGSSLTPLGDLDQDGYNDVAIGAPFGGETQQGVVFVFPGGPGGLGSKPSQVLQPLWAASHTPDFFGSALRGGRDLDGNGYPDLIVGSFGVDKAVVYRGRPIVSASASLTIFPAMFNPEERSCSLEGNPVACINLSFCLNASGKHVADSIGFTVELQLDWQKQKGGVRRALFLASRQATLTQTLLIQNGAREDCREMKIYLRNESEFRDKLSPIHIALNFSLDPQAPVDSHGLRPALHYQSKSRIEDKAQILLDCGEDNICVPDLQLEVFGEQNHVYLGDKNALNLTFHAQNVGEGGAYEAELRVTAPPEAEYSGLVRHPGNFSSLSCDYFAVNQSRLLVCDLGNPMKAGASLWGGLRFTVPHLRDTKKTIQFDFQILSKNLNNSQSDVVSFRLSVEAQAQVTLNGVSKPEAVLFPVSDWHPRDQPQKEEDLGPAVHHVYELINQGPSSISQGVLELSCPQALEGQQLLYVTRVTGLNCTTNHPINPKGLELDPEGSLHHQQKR
T3 sequence (P08648 895-1049 limits assumed): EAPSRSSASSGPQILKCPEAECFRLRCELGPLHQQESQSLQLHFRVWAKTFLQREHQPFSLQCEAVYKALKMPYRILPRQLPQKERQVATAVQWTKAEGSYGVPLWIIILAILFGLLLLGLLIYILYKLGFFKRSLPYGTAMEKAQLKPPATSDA
Integrin alpha-IIb/beta-3 (Homo sapiens, UniProt P05106+P08514), sequence (P05106 27-788 limits assumed): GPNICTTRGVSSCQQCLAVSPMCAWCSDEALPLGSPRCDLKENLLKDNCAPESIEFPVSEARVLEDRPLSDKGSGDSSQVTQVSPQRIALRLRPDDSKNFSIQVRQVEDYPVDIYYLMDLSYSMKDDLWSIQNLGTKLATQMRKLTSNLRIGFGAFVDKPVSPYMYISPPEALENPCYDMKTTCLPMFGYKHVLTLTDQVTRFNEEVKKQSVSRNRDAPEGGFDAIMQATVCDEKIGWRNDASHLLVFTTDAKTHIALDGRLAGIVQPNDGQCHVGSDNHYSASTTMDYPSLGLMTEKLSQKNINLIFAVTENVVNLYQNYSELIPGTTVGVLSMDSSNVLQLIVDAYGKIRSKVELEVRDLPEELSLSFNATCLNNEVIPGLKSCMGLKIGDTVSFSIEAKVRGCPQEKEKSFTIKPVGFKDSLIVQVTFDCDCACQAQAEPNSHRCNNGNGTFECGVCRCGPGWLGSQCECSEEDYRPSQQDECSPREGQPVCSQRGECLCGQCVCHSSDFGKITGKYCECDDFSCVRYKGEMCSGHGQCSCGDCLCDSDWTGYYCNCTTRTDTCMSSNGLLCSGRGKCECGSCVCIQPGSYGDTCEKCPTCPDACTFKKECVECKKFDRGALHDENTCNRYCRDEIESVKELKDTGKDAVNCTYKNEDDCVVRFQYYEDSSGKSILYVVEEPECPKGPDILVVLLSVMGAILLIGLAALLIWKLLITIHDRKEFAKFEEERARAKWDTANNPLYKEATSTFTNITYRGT
Integrin alpha-IIb/beta-3 (Homo sapiens, UniProt P05106+P08514), sequence (P08514 32-887 limits assumed): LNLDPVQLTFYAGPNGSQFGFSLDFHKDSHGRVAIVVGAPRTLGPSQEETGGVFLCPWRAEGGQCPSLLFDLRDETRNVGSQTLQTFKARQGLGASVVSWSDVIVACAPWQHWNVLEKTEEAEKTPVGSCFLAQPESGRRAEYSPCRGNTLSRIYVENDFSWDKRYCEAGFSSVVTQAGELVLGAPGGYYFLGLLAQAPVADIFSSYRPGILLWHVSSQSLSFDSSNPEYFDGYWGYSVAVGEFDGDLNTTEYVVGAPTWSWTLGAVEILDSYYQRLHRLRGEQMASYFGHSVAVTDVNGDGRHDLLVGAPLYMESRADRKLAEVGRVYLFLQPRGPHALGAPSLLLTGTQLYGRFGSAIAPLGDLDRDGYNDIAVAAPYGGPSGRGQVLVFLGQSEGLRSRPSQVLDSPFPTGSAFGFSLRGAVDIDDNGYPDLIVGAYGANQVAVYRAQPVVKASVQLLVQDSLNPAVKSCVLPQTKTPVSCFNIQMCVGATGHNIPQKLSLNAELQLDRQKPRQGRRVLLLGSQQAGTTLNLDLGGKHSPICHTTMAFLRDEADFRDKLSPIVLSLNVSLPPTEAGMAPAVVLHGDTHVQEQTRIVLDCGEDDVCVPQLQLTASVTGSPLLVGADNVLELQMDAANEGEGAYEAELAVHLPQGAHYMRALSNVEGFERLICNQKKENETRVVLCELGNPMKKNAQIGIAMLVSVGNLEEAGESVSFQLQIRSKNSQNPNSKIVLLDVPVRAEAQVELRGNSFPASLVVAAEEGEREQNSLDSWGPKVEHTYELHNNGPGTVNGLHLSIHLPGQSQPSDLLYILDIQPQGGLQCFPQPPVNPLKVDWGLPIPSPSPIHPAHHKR
Integrin alpha-IIb/beta-3 (Homo sapiens, UniProt P05106+P08514), sequence (P08514 891-1039 limits assumed): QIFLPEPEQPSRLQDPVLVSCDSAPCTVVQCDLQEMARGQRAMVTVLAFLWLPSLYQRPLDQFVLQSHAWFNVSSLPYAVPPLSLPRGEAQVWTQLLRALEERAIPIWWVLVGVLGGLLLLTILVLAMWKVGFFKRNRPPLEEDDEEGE
T1 sequence (P05106 27-788 limits assumed): as the sequence (P05106 27-788 limits assumed) above
T1 sequence (P06756 31-889 limits assumed): as the sequence (P06756 31-889 limits assumed) above
T1 sequence (P06756 891-1048 limits assumed): as the sequence (P06756 891-1048 limits assumed) above

As to `O=C(O)CC1CC(CNC(=O)CCCNc2ccccn2)=CCc2ccccc21` (stereo unspecified), the half-inhibitory concentration (IC50) in assay [1] turned out to be 2 nM; in assay [2], 1 nM.
In the case of `N=C(N)NCc1cccc(-c2ccc(C(=O)NC[C@H](NS(=O)(=O)c3ccccc3)C(=O)O)s2)c1`, the IC50 in assay [3] turned out to be 0.3 nM; in [4], 0.033 nM.
For the molecule `Cc1cc(C)c(S(=O)(=O)N[C@@H](CNC(=O)c2ccc(-c3cccc(CN=C(N)N)c3)s2)C(=O)O)c(C)c1`, the IC50 in assay [3] came to 0.2 nM; in [5], 20 nM; in assay [4], 3.5 nM; in assay [6] it was 60 nM.
As to `O=C(O)C[C@H](NC(=O)CNC(=O)c1cc(O)cc(NC2=NCC(O)CN2)c1)c1cc(Cl)cc(Br)c1O` (stereo partly specified), the IC50 in [3] is 257 nM; in assay [7], 10.4 nM; in assay [8] it was 1.6 nM; in [9], 11.7 nM; in assay [10], 1.71 nM; in assay [11] it was 316 nM. This molecule also yielded an IC50 in assay [12] of 18.1 nM.
On to `O=C(O)C[C@H](NC(=O)CNC(=O)c1cncc(N=C2NCC(O)CN2)c1)c1cc(Cl)cc(Br)c1O` (stereo partly specified), for which the IC50 in assay [3] stood at 380 nM; in assay [7], 1.59 nM; in assay [9], 1.13 nM; in assay [10], 0.65 nM; in [11] it was 64 nM; in [12], 1.5 nM.
`N=C(N)NCCC[C@@H]1NC(=O)CNC(=O)[C@H](CC(=O)O)N[C@H](C(=O)O)C[S+]([O-])CC(=O)N[C@H](Cc2ccc(O)cc2)C1=O` (stereo partly specified) displayed an IC50 in [3] of 1.5 nM.
With `N=C(N)NCCCCC(=O)NCC(=O)NC(CC(=O)O)c1cccnc1` (stereo unspecified), the IC50 in assay [3] is 9 nM; in assay [1] it was 10 nM; in assay [5] it was 70000 nM; in assay [13], 317 nM; in [4] it was 120 nM; in assay [6] it was 23 nM.
`N=C(N)NCCC[C@H](NC(=O)OCc1ccccc1)[C@H]1CC[C@H](C(=O)NC[C@H](NC(=O)OCc2ccccc2)C(=O)O)O1`: the IC50 in [3] amounted to 67 nM; in assay [1] it was 52 nM.
With `N=C(N)NCCCc1cn(CC(=O)N[C@@H](CC(=O)O)c2ccccc2)nn1`, the IC50 in [1] was 1.35 nM; in assay [2], 1.02 nM.
For `O=C(N[C@@H](CNC(=O)c1ccc(CN(Cc2nc3ccccc3[nH]2)C(=O)NC2CCCCC2)cc1)C(=O)O)OCc1ccccc1`, the values for the IC50 in assay [1], in assay [2] and in assay [14] were 3.2 nM, 1.7 nM and 421 nM, respectively.
For `C=Cc1cnc(NC[C@@H]2C[C@]3(CC(C(=O)NC[C@H](NS(=O)(=O)c4c(C)cc(C)cc4C)C(=O)O)=NO3)CN2C(=O)OCCCC)[nH]1`, the IC50 is 87 nM in assay [1] and 0.39 nM in [14].
Regarding `Cc1cc(C)c(S(=O)(=O)N[C@@H](CNC(=O)c2ccc3c(cnn3CCCNc3ncc[nH]3)c2)C(=O)O)c(C)c1`, the IC50 amounted to 2.3 nM in [15] and 21 nM in assay [16].
The matching figures for `O=C(NC[C@H](NS(=O)(=O)c1c(Cl)cccc1Cl)C(=O)O)c1ccc2c(cnn2CCCNc2ncc[nH]2)c1`: 8.5 nM and 12 nM.
